Legend:
Type in all cases: physicochemical
[1] = Solubility and impurities of API with solubility enhancing excipients in citrate or phosphate buffer pH 4.5; settings: for solubility: thermodynamic from solid
Protocol: The solubility of the API was assessed in different buffers together with different excipients. Batches containing different amounts of non-micronized API (i.e. 1 mg, 4 mg, 10 mg or 15 mg) in 100 g buffer were manufactured in order to have saturated solutions. Two different buffers were chosen (citrate buffer and phosphate buffer). […] In order to improve the poor solubility of the API, different solubility enhancing excipients were incorporated in the buffer systems in a concentration range of 0.1-2 wt.-%:
First, buffers were prepared according to Ph. Eur. After pH adjustment, the corresponding excipient was dissolved in the buffer. 1 mg of the API was added to the excipient containing buffer (i.e. 100 g) and stirred. If the API was dissolved completely, another 9 mg were added to a final amount of 10 mg API in […] buffer/excipient mixture. The resulting compositions were stirred overnight prior to filtration through a 0.45 μm filter and analysis and contained 1 mg or 10 mg API, respectively. The following compositions were prepared and the following solubility values were achieved: […]

[2] = Stability after autoclaving; settings: 121° C. and 2 bar for 20 min
Protocol: The stability of the pharmaceutical composition was assessed by means of autoclaving experiments, where the compositions were treated at 121° C. and 2 bar for 20 min.
Autoclaving experiments were performed with the aim to evaluate the stability of API in defined buffer systems and excipients. Clear glass covered by aluminium foil was chosen as primary packaging as it provided sufficient light protection for the material and was expected to provide a smaller risk of interaction than amber glass. The batches were autoclaved at 121° C. and 2 bar for 20 min, following analysis of impurity profiles.

[3] = Solubility and stability of API in dependence of surfactant concentration; settings: phosphate buffer and 0.50% vitamin E TPGS, compared with other buffer/surfactant combinations at 0.25% and 0.5%
Protocol: In order to prevent too high concentrations of surfactants, which can cause irritant or toxic effects after local administration in the bladder, lower concentrations were evaluated. New batches of API in citrate and phosphate buffer were manufactured. SLS and vitamin E TPGS were chosen for citrate buffer and Labrasol® and vitamin E TPGS for phosphate buffer in a concentration of 0.5% and 0.25%, each. The compositions were stirred overnight prior to filtration and analysis.

With `CN(C)[C@]1(c2cccc(F)c2)CC[C@]2(CC1)c1[nH]c3ccccc3c1CCN2C(=O)/C=C/c1ccccc1` [API, cis-(E)-4-(3-fluorophenyl)-2′,3′,4′,9′-tetrahydro-N,N-dimethyl-2′-(1-oxo-3-phenyl-2-propenyl)-spiro[cyclohexane-1,1′[1H]-pyrido[3,4-b]indol]-4-amine] the Sum of impurities ([1]; citrate buffer pH 4.5, 1 wt.-% Cremophor ® RH 40, 1 mg API in 100 g buffer) was 0.92 % (a/a), the Sum of impurities ([1]; citrate buffer pH 4.5, 1 wt.-% Gelucire ® 44/14, 10 mg API in 100 g buffer) was 25.91 % (a/a) and the Sum of impurities ([1]; citrate buffer pH 4.5, 1 wt.-% Labrasol ®, 10 mg API in 100 g buffer) was 19.81 % (a/a). For the same compound, the Sum of impurities ([1]; citrate buffer pH 4.5, 1 wt.-% PEG 400, 10 mg API in 100 g buffer) was 0 % (a/a), the Sum of impurities ([1]; citrate buffer pH 4.5, 1 wt.-% Propylene glycol, 10 mg API in 100 g buffer) was 0 % (a/a) and the Sum of impurities ([1]; citrate buffer pH 4.5, 1 wt.-% SLS, 1 mg API in 100 g buffer) was 5.52 % (a/a). The Sum of impurities ([1]; citrate buffer pH 4.5, 1 wt.-% SLS, 10 mg API in 100 g buffer) was 3.47 % (a/a), the Sum of impurities ([1]; citrate buffer pH 4.5, 1 wt.-% Solutol ® HS 15, 1 mg API in 100 g buffer) was 0.53 % (a/a) and the Sum of impurities ([1]; citrate buffer pH 4.5, 1 wt.-% Tween ® 80, 1 mg API in 100 g buffer) was 1.1 % (a/a). The Sum of impurities ([1]; citrate buffer pH 4.5, 1 wt.-% vitamin E TPGS, 10 mg API in 100 g buffer) was 5.71 % (a/a), the solubility ([1]; citrate buffer, pH 4.5, aqueous with cosolvent or surfactant or cyclodextrin, citrate buffer pH 4.5, 1 wt.-% Cremophor ® RH 40, 1 mg API in 100 g buffer) was 7.18 µg/mL and the solubility ([1]; citrate buffer, pH 4.5, aqueous with cosolvent or surfactant or cyclodextrin, citrate buffer pH 4.5, 1 wt.-% Gelucire ® 44/14, 10 mg API in 100 g buffer) was 34.9 µg/mL. It also gave a solubility ([1]; citrate buffer, pH 4.5, aqueous with cosolvent or surfactant or cyclodextrin, citrate buffer pH 4.5, 1 wt.-% Labrasol ®, 10 mg API in 100 g buffer) of 12.1 µg/mL, a solubility ([1]; citrate buffer, pH 4.5, aqueous with cosolvent or surfactant or cyclodextrin, citrate buffer pH 4.5, 1 wt.-% SLS, 1 mg API in 100 g buffer) of 79.5 µg/mL and a solubility ([1]; citrate buffer, pH 4.5, aqueous with cosolvent or surfactant or cyclodextrin, citrate buffer pH 4.5, 1 wt.-% SLS, 10 mg API in 100 g buffer) of 8.19 µg/mL. It also gave a solubility ([1]; citrate buffer, pH 4.5, aqueous with cosolvent or surfactant or cyclodextrin, citrate buffer pH 4.5, 1 wt.-% Solutol ® HS 15, 1 mg API in 100 g buffer) of 7.95 µg/mL, a solubility ([1]; citrate buffer, pH 4.5, aqueous with cosolvent or surfactant or cyclodextrin, citrate buffer pH 4.5, 1 wt.-% Tween ® 80, 1 mg API in 100 g buffer) of 7.93 µg/mL and a solubility ([1]; citrate buffer, pH 4.5, aqueous with cosolvent or surfactant or cyclodextrin, citrate buffer pH 4.5, 1 wt.-% vitamin E TPGS, 10 mg API in 100 g buffer) of 76.4 µg/mL. For the same compound, the Sum of impurities ([1]; phosphate buffer pH 4.5, 1 wt.-% Cremophor ® RH 40, 1 mg API in 100 g buffer) was 0.2 % (a/a), the Sum of impurities ([1]; phosphate buffer pH 4.5, 1 wt.-% Gelucire ® 44/14, 1 mg API in 100 g buffer) was 17.48 % (a/a) and the Sum of impurities ([1]; phosphate buffer pH 4.5, 1 wt.-% Labrasol ®, 1 mg API in 100 g buffer) was 5.91 % (a/a). The Sum of impurities ([1]; phosphate buffer pH 4.5, 1 wt.-% PEG 400, 1 mg API in 100 g buffer) was 11.7 % (a/a), the Sum of impurities ([1]; phosphate buffer pH 4.5, 1 wt.-% Propylene glycol, 1 mg API in 100 g buffer) was 38.22 % (a/a) and the Sum of impurities ([1]; phosphate buffer pH 4.5, 1 wt.-% SLS, 1 mg API in 100 g buffer) was 22.55 % (a/a). For the same compound, the Sum of impurities ([1]; phosphate buffer pH 4.5, 1 wt.-% Solutol ® HS 15, 1 mg API in 100 g buffer) was 0.2 % (a/a), the Sum of impurities ([1]; phosphate buffer pH 4.5, 1 wt.-% Tween ® 80, 1 mg API in 100 g buffer) was 0.52 % (a/a) and the Sum of impurities ([1]; phosphate buffer pH 4.5, 1 wt.-% vitamin E TPGS, 10 mg API in 100 g buffer) was 1.87 % (a/a). It also gave a solubility ([1]; phosphate buffer, pH 4.5, aqueous buffer, phosphate buffer pH 4.5, 1 wt.-% PEG 400, 1 mg API in 100 g buffer) of 0.83 µg/mL, a solubility ([1]; phosphate buffer, pH 4.5, aqueous buffer, phosphate buffer pH 4.5, 1 wt.-% Propylene glycol, 1 mg API in 100 g buffer) of 0.04 µg/mL and a solubility ([1]; phosphate buffer, pH 4.5, aqueous with cosolvent or surfactant or cyclodextrin, phosphate buffer pH 4.5, 1 wt.-% Cremophor ® RH 40, 1 mg API in 100 g buffer) of 7.67 µg/mL. For the same compound, the solubility ([1]; phosphate buffer, pH 4.5, aqueous with cosolvent or surfactant or cyclodextrin, phosphate buffer pH 4.5, 1 wt.-% Gelucire ® 44/14, 1 mg API in 100 g buffer) was 53.5 µg/mL, the solubility ([1]; phosphate buffer, pH 4.5, aqueous with cosolvent or surfactant or cyclodextrin, phosphate buffer pH 4.5, 1 wt.-% Labrasol ®, 1 mg API in 100 g buffer) was 45.8 µg/mL and the solubility ([1]; phosphate buffer, pH 4.5, aqueous with cosolvent or surfactant or cyclodextrin, phosphate buffer pH 4.5, 1 wt.-% SLS, 1 mg API in 100 g buffer) was 1.68 µg/mL. For the same compound, the solubility ([1]; phosphate buffer, pH 4.5, aqueous with cosolvent or surfactant or cyclodextrin, phosphate buffer pH 4.5, 1 wt.-% Solutol ® HS 15, 1 mg API in 100 g buffer) was 6.71 µg/mL, the solubility ([1]; phosphate buffer, pH 4.5, aqueous with cosolvent or surfactant or cyclodextrin, phosphate buffer pH 4.5, 1 wt.-% Tween ® 80, 1 mg API in 100 g buffer) was 8.91 µg/mL and the solubility ([1]; phosphate buffer, pH 4.5, aqueous with cosolvent or surfactant or cyclodextrin, phosphate buffer pH 4.5, 1 wt.-% vitamin E TPGS, 10 mg API in 100 g buffer) was 256 µg/mL. For the same compound, the “degradation of API after autoclaving” value ([2]; citrate buffer and SLS) was “highest degradation”, the “degradation of API after autoclaving” value ([2]; phosphate buffer and vitamin E TPGS) was “lowest degradation” and the assay and impurities [3] was “highest assay and lowest impurities values”.

From patent US20180243273A1, “Composition for Intravesical Administration for Treating Bladder Pain” (priority 2017, published 2018)
